Source: patent US20250339426A1, “GCN2 MODULATOR FOR TREATING CANCER” (HIBERCELL, INC., priority 2022, published 2025)
pEC50: −log10 of the molar value.

Tests used:
[1] = tested on: Kasumi-1 (human AML cancer cells); test: In vivo tumor growth inhibition, Kasumi-1 xenograft; set-up: species or system CB17 SCID mice
Method: Kasumi-1 (human AML cancer cells): Female 6-8 weeks old CB17 SCID mice were inoculated subcutaneously on the right flank with […] tumor cells (1×10^7) in RPMI 1640 without serum for tumor development. The treatments were started when the mean tumor size reached approximately 151 mm^3 at Day 29 after cell inoculation and continued until end of study by twice daily oral gavage dosing of HC-7366 at listed doses (vehicle, 3 mg/kg HC-7366, or 30 mg/kg HC-7366, FIG. 18).
(§1) [formula] • 2.2.2 Tumor Measurements: The measurement of tumor size was conducted three times weekly with a caliper and recorded. The tumor volume (mm^3) was estimated using the formula: TV=a×b^2/2, where “a” and “b” is long and short diameters of a tumor, respectively. Tumor volume was calculated using the formula [tumor volume (mm^3)=π/6×length×width^2).
(§2) Regression was calculated using the formula=100×ΔT/T initial, if ΔT<0. Animals with 0 mm^3 tumor volume (no measurable tumor) for three consecutive measurements were considered as complete responders and animals with 50% tumor regressions were partial responders.

[2] = tested on: NCI-H1975 (human non-small cell lung cancer cells); test: In vivo tumor growth inhibition, NCI-H1975 xenograft; set-up: species or system Athymic Nude-Foxn1nu mice; settings: HC-7366 3 mg/kg twice daily oral
Method: NCI-H1975 (human non-small cell lung cancer cells): Female 7-8 weeks old Athymic Nude-Foxn1nu mice were inoculated subcutaneously on the right flank with NCI-H1975 tumor cells (2.5×10^6) in 0.1 ml of RPMI1640 medium without serum for tumor development. Single agent HC-7366 was dosed at 3 mg/kg, osimertinib at 2.5 mg/kg and dacomitinib at 15 mg/kg. HC-7366 was combined with either osimertinib or dacomitinib. The vehicle for the groups was 0.5% methyl cellulose. The treatments were started when the mean tumor size reached approximately 205 mm^3 at Day 22 post inoculation and continued until end of study. HC-7366 was given twice daily by oral gavage whereas osimertinib or dacomitinib were administered once a day by oral gavage (FIGS. 131 and 133).
as §1, §2

MOLM-16 cells = test: CTG viability assay, MOLM-16 sgControl and sgGCN2 cells; assay type: cell-based, human; settings: 24 or 48 hr
Method: MOLM-16 cells were obtained from DSMZ (#ACC 555) and were cultured in RPMI 1640 (Gibco, #11875119) with 20% FBS (Invitrogen, #10099141C) at 37° C. and 5% CO2. MOLM-16 GCN2 CRISPR knockout cells (sgGCN2) were generated and compared to control cells (sgControl). For viability experiments, cells were plated in 384-well cell culture plates and incubated overnight. Compounds were diluted in 8 concentrations by 3-fold dilution in 384pp-plate using TECAN EVO200 to a final concentration ranging from […]. The plates were incubated for 24 or 48 hr and viability was assessed by adding CellTiter-Glo® 2.0 Assay according to the manufacturer's protocol (Promega, G9243) to each well. The plates were then incubated at RT for 30 min. The luminescent signals were read by Envision (PerkinElmer) plate reader and analyzed by Prism.

[3] = tested on: ATF4, ASNS, PSAT1 in MOLM-16 cells; test: Jess protein analysis, MOLM-16 cells; assay type: cell-based, human; settings: sgControl vs sgGCN2, 24 hr
Method: Cell lysates were obtained from MOLM-16 sgControl or sgGCN2 cells treated with HC-7366 (0, 0.01, 0.1 and 10 μM) for 24 hr. Ice cold 1x radioimmunoprecipitation assay (RIPA) lysis buffer supplemented with protease and phosphatase inhibitors was added to the cell pellets, on ice. After 30 min on ice, the cell lysates were centrifuged at 4° C., 12,000 rpm for 15 minutes and the supernatant collected. Protein concentration was determined using BCA kit. The cell lysates were mixed with 5× sodium dodecyl sulfate (SDS) loading buffer and denatured at 95° C. for 5 minutes. 1 μg lysate was run on Jess capillary and results were analyzed by compass simple western software.

[4] = tested on: patient-derived Champions' human AML models; test: Ex vivo AML PDX cell viability (Cell Titer Glo), 30 models; assay type: cell-based; settings: for pEC50: Homo sapiens
Method: . Cell viability was assayed after treating PDX models with DMSO or HC-7366 for 6 days using a plate-based luminescence assay (Cell Titer Glo). […]
EC50 values were calculated to the bottom of the curve and are provided below. Viability curves are provided for the models CTG-2229 (FIG. 81), CTG-3680 (FIG. 82), CTG-3667 (FIG. 83), CTG-2456 (FIG. 84), CTG-2457 (FIG. 85), and CTG-2454 (FIG. 86).

FaDu cells = test: Metabolomics in wild type and GCN2 CRISPR knockout FaDu cells; assay type: cell-based, human; settings: 0.1 μM
Method: Wild type and GCN2 CRISPR knockout FaDu cells were treated with 0.1 μM for 9 hours, and metabolomics were evaluated.

[5] = tested on: upstream regulators of differentially expressed genes in DLD-1 tumors; test: RNAseq analysis of DLD-1 tumors; assay type: in vivo, mice
Method: DLD-1 (human colorectal cancer cells): Female 6-8 weeks old BALB/c nude mice were inoculated subcutaneously on the right flank with DLD-1 tumor cells (5×10^6) in 0.1 ml of RPMI1640 medium without serum for tumor development. The treatments were started when the mean tumor size reached approximately 195 mm^3 at Day 7 post inoculation and continued until end of study by twice daily oral gavage dosing of HC-7366 at listed doses (vehicle, 0.3 mg/kg HC-7366, 1 mg/kg HC-7366, 3 mg/kg HC-7366, 10 mg/kg HC-7366, or 30 mg/kg HC-7366, FIG. 10). For the time course study, tumors were harvested at Days 4, 7 and 14. Tumors were then used for IHC and RNAseq experiments (see Example 21).
DLD-1 tumor bearing mice were treated with HC-7366 at 0.3, 1, 3, 10 and 30 mg/kg twice a day for 14 days. Tumors were harvested for RNAseq analysis at Day 4, Day 7 and Day 14 (FIG. 128).

`CNC(=O)c1ncn2cc(-c3c(F)ccc(NS(=O)(=O)c4cc(Cl)cnc4OC)c3F)ncc12` [HC-7366, 6-(3-((5-chloro-2-methoxypyridine)-3-sulfonamido)-2,6-difluorophenyl)-N-methylimidazo[1,5-a]pyrazine-1-carboxamide] was tested, and the TGI ([1]; 3 mg/kg twice daily oral) was 73%, the TGI ([1]; 30 mg/kg twice daily oral) was 77% and the TGI [2] was 59%. The viability response (MOLM-16 cells; GCN2 CRISPR knockout cells) was “reversed”, the viability (MOLM-16 cells; GCN2 wild-type (sgControl), lower concentrations, U-shaped manner) was “potently reduced viability” and the “levels of ATF4, ASNS and PSAT1” value [3] was “GCN2-dependent increase”. For the same molecule, the “viability of primary AML PDX cells” value ([4]; 4.57-10,000 nM, 6 days) was “potently reduced viability”, the pEC50 ([4]; 5 PDX models, resistant responders) was 5.65 to 6.03 and the pEC50 ([4]; 11 PDX models, sensitive responders) was over 7.00. The pEC50 ([4]; 12 PDX models, moderate responders) was 6.46 to 7.00, the response ([4]; two models) was “no response” and the ATF4 (FaDu cells; GCN2 dependent manner) was “induced”. The “level of many amino acids” value (FaDu cells; wild type FaDu cells, 9 h, GCN2-dependent) was “enhanced level”, the “HIF1α, SMAD4 and E2F1 signature” value ([5]; 0.3-30 mg/kg twice a day) was “reduction” and the “ATF4 (upstream regulator of differentially expressed genes)” value ([5]; all doses (0.3-30 mg/kg twice a day)) was “significantly induced”.
